Results published in patent publication US20170281611A1, “QUINOLINES AND THEIR USE FOR TREATING ENDOPLASMIC RETICULUM STRESS-CAUSED DISEASES” (EIGER BIOPHARMACEUTICALS, INC., priority 2014, published 2017).
Like-named read-outs stand apart in the source and are kept apart here. Blank lines part the entries; values can stand above or below the compound they belong to.

What was measured:
CSM14.1 cells = experiment: ER stress cell survival assay (thapsigargin, […]-GLO); format: cell-based; conditions: dose-response
Description: CSM14.1 cells were maintained in Complete Medium at 32° C.; wherein the Complete Medium contained Dulbecco's modified eagle medium (DMEM) with 10% fetal bovine serum (FSB), 1% L-glutamine, 100 IU/mL penicillin, and 100 μg/mL streptomycin. The cells were recovered from cultures by trypsinization and then seeded in 384 well plates (Greiner #781098) at a concentration of 1,000 cells/well in 20 μL of DMEM Assay Medium, wherein the DMEM Assay Medium contained 2% FBS, 100 IU/mL penicillin, and 100 μg/mL streptomycin. Seeding was performed using a MultiDrop Combi reagent broadcaster. The plates were incubated overnight at 32° C.
A test compound was prepared by 2-fold serial dilution in 100% DMSO using a BIOMEK® 2000 liquid handler (Beckman Coulter). A dose-response curve containing 10 concentrations of the test compound was obtained. Using a BIOMEK® FX liquid handler (Beckman Coulter), 2.5 μL of the test compound was transferred from the 100% DMSO serial dilution plate to an intermediate plate containing 47.5 μL of DMEM Assay Medium containing 2% FBS, 100 IU/mL penicillin, and 100 μg/mL streptomycin and mixed. To reduce or eliminate the interference from the compound's precipitation, 6 μL of the diluted compound was immediately transferred to the assay plate to achieve a high compound concentration of 100 μM in 99% DMEM Assay Medium and 1% DMSO. After the assay plates were incubated for 2 hrs, 4 μL of 112.5 μM thapsigargin (TG) (DMSO stock diluted into Assay TC Medium) was dispensed into each testing well with a MultiDrop Combi reagent broadcaster for a final concentration of about 15 μM TG. The tissue culture media (4 μL) containing vehicle only was transferred manually to each control cell using a 16 channel electronic pipette. […] High luminescence indicates cell survival.
Alternatively, a test compound was tested at a single compound concentration (e.g., 2 μM) to determine the effect of the compound on cell survival in comparison with vehicle.

[1] = Pharmacokinetics in Sprague Dawley rats (Table 4); format: in vivo; conditions: rat; for MRT inf: read-out: MRT0-∞
Text: Compound D1 was formulated in 0.3% DMA/1% SOLUTOL®/98.7% saline. Compound D6 was formulated in 0.5% DMA/1% SOLUTOL®/94.5% 0.01N HCl in saline/4% NaOH (pH 4-5).

MCF10A Cells = experiment: In vitro viability, monolayers (2D) and spheroids (3D), normal breast tissue cells; format: cell-based; conditions: Homo sapiens, MCF-10A
Description: (§1) The anticancer activity of a test compound was determined in vitro using mammalian tumor cells that grew as monolayers and spheroids. Spheroids represent the three-dimensional growth and organization of solid tumors, and thus are an intermediate model between monolayers of cells in culture and tumors in vivo. The cancer cell line tested was a breast cancer cell line, BT474. Normal breast tissue cells (MCF10A) were used as a control. The viability/proliferation of the cells were measured using […]-GLO® reagent.

[2] = test system: human foreskin fibroblast (HFF) cells; experiment: Toxicity in human foreskin fibroblast cells; format: cell-based; conditions: 100 μM
BT474 Cells = experiment: In vitro anticancer activity, monolayers (2D) and spheroids (3D), BT474; format: cell-based; conditions: Homo sapiens
Description: as §1

[3] = Pharmacokinetics in Beagle dogs (Table 5); format: in vivo; conditions: dog; for MRT inf: read-out: MRT0-∞
Description: For pharmacokinetic evaluation, 3 male Beagle dogs were intravenously (IV) dosed (1 mg/kg body weight) and 3 male Beagle dogs were orally (PO) dosed (10 mg/kg body weight) with a test compound. Blood (approximately 1.0 mL) was collected via femoral vein into tubes containing K3EDTA anticoagulant at 0, 0.017, 0.083, 0.5, 1, 2, 4, 6, 8, and 24 hours post-dosing. Plasma samples were analyzed by LC-MS/MS. The analytical results were confirmed using quality control samples for intra-assay variation. The accuracy of >66% of the quality control samples was between 80-120% of the known value(s). A standard set of pharmacokinetic parameters were generated from concentration data including Area Under the Curve (AUC0-t and AUC0-inf), elimination half-lives, clearances, volume of distribution and bioavailabilities (based on AUC0-t), maximum plasma concentration (C0; Cmax), and time to reach maximum plasma concentration (Tmax).

SERCA = experiment: Activation of SERCA, increase in Vmax (SR type not given); format: biochemical
[4] = Sprague Dawley, in vivo, IV (2 mg/kg)
[5] = Sprague Dawley, in vivo, PO (10 mg/kg)
[6] = monolayers (2D), read-out: IC50 (2D)
[7] = spheroids (3D), read-out: IC50 (3D)
[8] = BT-474, monolayers (2D), read-out: IC50 (2D)
[9] = BT-474, spheroids (3D), read-out: IC50 (3D)
[10] = male, Beagle, plasma, IV (1 mg/kg)
[11] = male, Beagle, plasma, PO (10 mg/kg)

SMILES: O=C(c1cccc(Cl)c1)N1CCN(c2ccnc3cc(Cl)ccc23)CC1 [Compound D3, (3-Chlorophenyl)(4-(7-chloroquinolin-4-yl)piperazin-1-yl)methanone]
EC50 (CSM14.1 cells): 20 to 100 µM

SMILES: Cc1ccc(C(=O)N2CCN(c3ccnc4cc(Cl)ccc34)CC2)cc1 [Compound D4, (4-(7-Chloroquinolin-4-yl)piperazin-1-yl)(p-tolyl)methanone]
EC50 (CSM14.1 cells): 20 to 100 µM

SMILES: Cc1ccc(C(=O)N2CCN(c3ccnc4cc(Cl)ccc34)CC2)cc1Cl [Compound D5, (3-Chloro-4-methylphenyl)(4-(7-chloroquinolin-4-yl)piperazin-1-yl)methanone]
EC50 (CSM14.1 cells): < 20 µM

AUC(0-inf) [1, 4]: 8.64 ± 0.65 µg·h/mL
AUC(0-t) [1, 4]: 8.6 ± 0.659 µg·h/mL
Cmax [1, 4]: 39.7 ± 1.06 µM
Tmax [1, 4]: 0.02 h
clearance [1, 4]: 0.23 L/h/kg
half-life [1, 4]: 0.98 ± 0.13 h
MRT inf [1, 4]: 0.98 ± 0.09 h
Vd ([1]; Sprague Dawley, in vivo, IV (2 mg/kg), read-out: Vz): 0.33 ± 0.03 L/kg
AUC(0-inf) [1, 5]: 21.2 ± 1.94 µg·h/mL
AUC(0-t) [1, 5]: 19.9 ± 1.51 µg·h/mL
Cmax [1, 5]: 13 ± 3.56 µM
Tmax [1, 5]: 0.42 ± 0.14 h
half-life [1, 5]: 1.79 ± 0.39 h
MRT inf [1, 5]: 2.96 ± 0.66 h
F ([1]; PO (10 mg/kg) vs IV (2 mg/kg)): 44%
IC50 (BT474 Cells; [8]): 5 µM
IC50 (BT474 Cells; [9]): 8 µM
F ([3]; PO (10 mg/kg) vs IV (1 mg/kg), based on AUC0-t): 82%
AUC(0-inf) [3, 10]: 14.3 ± 2.22 µg·h/mL
AUC(0-t) [3, 10]: 13.9 ± 2.1 µg·h/mL
Cmax [3, 10]: 12.7 ± 2.4 µM
Tmax [3, 10]: 0.02 h
clearance [3, 10]: 0.07 L/h/kg
half-life [3, 10]: 4.8 ± 0.4 h
MRT inf [3, 10]: 5.6 ± 0.4 h
Vd ([3]; male, Beagle, plasma, IV (1 mg/kg), read-out: Vz): 0.49 ± 0.04 L/kg
AUC(0-inf) [3, 11]: 114 ± 15.5 µg·h/mL
AUC(0-t) [3, 11]: 110 ± 15.5 µg·h/mL
Cmax [3, 11]: 26.5 ± 1.9 µM
Tmax [3, 11]: 0.83 ± 0.29 h
half-life [3, 11]: 4.8 ± 0.6 h
MRT inf [3, 11]: 7 ± 0.3 h
SMILES: O=C(c1ccc(N2CCCC2)c([N+](=O)[O-])c1)N1CCN(c2ccnc3cc(Cl)ccc23)CC1 [Compound D6, (4-(7-Chloroquinolin-4-yl)piperazin-1-yl)(3-nitro-4-(pyrrolidin-1-yl)phenyl)methanone]
IC50 (MCF10A Cells; [6]): > 50 µM
IC50 (MCF10A Cells; [7]): > 50 µM
toxicity in HFF cells [2]: no toxicity
EC50 (CSM14.1 cells): < 20 µM

SMILES: O=C(C1CC1)N1CCN(c2ccnc3cc(Cl)ccc23)CC1 [Compound D7]
EC50 (CSM14.1 cells): < 20 µM

SMILES: CCNc1ccc(C(=O)Nc2cccc3ccc(C)nc23)cc1 [Compound J1, 4-(Ethylamino)-N-(2-methylquinolin-8-yl)benzamide]
Increase in Vmax at 10 μM (SERCA): A′ (A′ represents an increase greater than 50%)
EC50 (CSM14.1 cells): < 20 µM

SMILES: Cc1ccc2cccc(NC(=O)c3ccc(O)cc3)c2n1 [Compound J2, 4-Hydroxy-N-(2-methylquinolin-8-yl)benzamide]
Increase in Vmax at 10 μM (SERCA): A′ (A′ represents an increase greater than 50%)
EC50 (CSM14.1 cells): < 20 µM

IC50 (BT474 Cells; [8]): 10 µM
IC50 (BT474 Cells; [9]): 10 µM
SMILES: CCN(CC)CCNC(=O)c1c(C)[nH]c(/C=C2\C(=O)Nc3ccc(F)cc32)c1C [Sutent, reference compound]
IC50 (MCF10A Cells; [6]): 3 µM
IC50 (MCF10A Cells; [7]): 7 µM
